Laboratory results from patent US8993717B2, “Gadd45beta targeting agents” (Imperial Innovations Limited, priority 2009, dated 2015).
Where two headings read alike, the source gives them in different places. Square brackets hold non-standard residues; d marks the D form. Peptide text beside a SMILES is read from it. * marks the point of attachment. Cbz = O=C(OCc1ccccc1)*

How the values were obtained:
[1] = system: KMS12 multiple myeloma cells; assay: [3H]thymidine incorporation assay in KMS12; format: cell-based, human; conditions: read-out: IC50 [H^3] thymidine incorporation assay in KMS12
Experimental: The effects of Z-DTPs on the survival/proliferation of multiple myeloma cells were evaluated by the use of [^3H]thymidine) incorporation assays, performed as also described in Example 8. The amount of cell proliferation measured with each of the Z-DTPs' concentrations used and with the untreated cultures (i.e. cultures incubated with medium alone), was expressed as counts per minute (c.p.m.)—which directly correlate with the extent of cell proliferation. All experiments were performed in triplicate.
In these latter assays, the effects of Z-DTPs, Ac-DTPs and Z-LTPs on the survival/proliferation of tumour cell lines was investigated by measuring DNA synthesis using standard tritiated thymidine ([^3H]thymidine; [^3H]-TdR) uptake assays. In the analyses shown, cells were incubated for 24, 72, 120 or 144 hrs at 37° C. in the presence or absence of control or bioactive tetrapeptides, as indicated, then subjected to an additional incubation for 18 hrs with [^3H]-TdR (0.037 MBq/well, equivalent to 0.5 μCi/well). Cells were subsequently harvested onto glass fibre filter mats using a 96-well plate automated cell harvester, after which scintillation fluid was added, and [^3H]thymidine incorporation measured by liquid scintillation spectroscopy on a beta counter. The results are expressed as the percentages of the counts per minute (c.p.m.) (directly correlating with the extent of cell proliferation) measured with tetrapeptide-treated cultures relative to the c.p.m. measured with the corresponding cultures incubated with medium alone (untreated cells). All experiments were performed in triplicate.

[2] = biological target: T1, Gadd45β-inhibited MKK7 (Homo sapiens, UniProt O14733); assay: MKK7 kinase assay in the presence of recombinant hGadd45β; format: biochemical; conditions: 1 nM or 5 nM peptide, 5 μM GST-hGadd45β
T1 construct: expressed in transfected cells; host or cells: HEK-293 (FLAG-MKK7); bacteria (GST-hGadd45β)
T1 sequence (O14733 1-419): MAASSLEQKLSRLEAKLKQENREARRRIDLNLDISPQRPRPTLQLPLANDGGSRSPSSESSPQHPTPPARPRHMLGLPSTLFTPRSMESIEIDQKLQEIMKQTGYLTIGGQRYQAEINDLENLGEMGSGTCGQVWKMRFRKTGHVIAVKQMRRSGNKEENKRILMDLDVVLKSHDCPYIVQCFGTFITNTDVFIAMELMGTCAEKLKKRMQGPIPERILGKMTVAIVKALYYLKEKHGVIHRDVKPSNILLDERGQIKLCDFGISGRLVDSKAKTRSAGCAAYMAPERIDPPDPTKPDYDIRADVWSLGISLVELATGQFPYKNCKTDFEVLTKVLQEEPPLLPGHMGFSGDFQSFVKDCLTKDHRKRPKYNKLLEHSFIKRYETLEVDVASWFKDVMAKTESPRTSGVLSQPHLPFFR
Experimental: In FIG. 6, transient transfection of pcDNA-FLAG-MKK7 in HEK-293 cells was performed using the method of Ca3(PO4)2 precipitation, essentially as described in Papa, S et al., (2004) Nat. Cell Biol. 6, 146-153 and references therein. 36 hrs after transfection, the cells were treated with 100 ng/ml phorbol 12-myristate 13-acetate (PMA) and 1 μM ionomycin for 30 min at 37° C. Cell extracts were prepared as described in example 4 and used for immunoprecipitation with anti-FLAG antibodies (binding to FLAG-MKK7) as described in Papa, S et al., (2004) Nat. Cell Biol. 6, 146-153 and references therein. Briefly, 50 μg of cell lysate from PMA-ionomycin (P/D-treated or untreated, HEK-293 cells transiently expressing FLAG-MKK7 was incubated with 10 μl of anti-FLAG M2 Affinity Gel (SIGMA) for 4 hrs at 4° C. during rotation. The immunoprecipitates were then washed 3 times in lysis buffer and twice more in kinase buffer (10 mM HEPES, 5 mM MgCl2, 1 mM MnCl2,12.5 mM β-glycerophosphate, 2 mM DTT, 4 mM NaF and 0.1 mM Na3VO4). MKK7 catalytic activity was finally measured in kinase assays by incubating FLAG-MKK7 immunoprecipitates at 30° C. for 20 min with 20 μl of kinase buffer containing 2 μM of recombinant GST-JNK1 and 5 μCi of [γ-^32P]ATP) (kinase reaction), as described in Papa, S et a., (2004) Nat. Cell Biol. 6, 146-153 and references therein.
In some reactions, to test the ability of D-tetrapeptide antagonists to disrupt the Gadd45β-MKK7 interaction and so release the catalytic activity of MKK7 from Gadd45β-afforded inhibition, FLAG-MKK7 immunoprecipitates were 1) first pre-incubated for 10 min at 30° C. with either 1 nM or 5 nM of DTP1, DTP2 or negative control (NC) D-tetrapeptides, NC1, NC2, NC3 and NC4, and 2) then incubated for another 10 min at 30° C. with or without 5 μM of a GST-fusion protein of recombinant human (h)Gadd45β (GST-hGadd45β; purified from bacterial lysates as described in Papa, S., (2007) J. Biol. Chem. 282, 19029-19041), before using them for the kinase reaction described above, as indicated in FIG. 6.
In all cases, kinase reactions were terminated by the addition of Laemmli sample buffer. […] For a further discussion of MKK7 kinase assay conditions, the reader is directed to Papa, S et al., (2007) J. Biol. Chem. 282, 19029-19041 and Papa, S et al., (2004) Nat. Cell Biol. 6, 146-153 and the references therein.

[3] = biological target: T2, Gadd45β/MKK7 interaction (Homo sapiens, UniProt O14733); assay: Co-immunoprecipitation assay, lysates of HEK-293 cells expressing HA-Gadd45β and FLAG-MKK7; format: binding; conditions: 1 or 5 nM peptide
T2 construct: The GST-fused full-length kinase was coated for 16 h at 4° C., at a concentration of 42 nM; made in house
T2 sequence (O14733 1-419): T1 sequence (O14733 1-419)
Experimental: Human Embryonic Kidney (HEK-293) were cultured in Dulbecco's modified Eagle's medium (DMEM) supplemented with 10% fetal calf serum (FCS), 100 units/ml penicillin, […] streptomycin, and 1% glutamine. HEK-293 cells (2.2×10^6) were seeded onto 10 cm^2 tissue-culture dishes, and the following day, were transfected with pcDNA-FLAG-MKK7 and pcDNA-HA-Gadd45β plasmids, using a standard Ca3(PO4)2 precipitation technique (Papa, S et al., (2004) Nat. Cell Biol. 6, 146-153). Forty-eight hours after transfection, the cells were washed once with PBS, then resuspended and incubated for 30 min at 4° C. in lysis buffer (20 mM HEPES, 350 mM NaCl, 20% glycerol, 1 mM MgCl2, 0.2 mM EGTA, 1 mM DTT, 1 mM Na3VO4, and 50 mM NaF) supplemented with protease inhibitors (1 mM phenylmethylsulfonylfluoride, 10 μM chymostatin, 2 μg/ml aprotinin, and 2 μg/ml leupeptin) with occasional gentle shaking. The lysed cells were collected and then centrifuged at 45,000×g for 40 min. The resulting cleared cell lysates were used for further analysis.
Immunoprecipitations were performed using essentially the same conditions described in Papa, S et al., (2004) Nat. Cell Biol. 6, 146-153 and the references therein, and an anti-FLAG antibody which precipitated FLAG-tagged MKK7. […]

SMILES	IC50 ([1]; Day 1) [nM]	IC50 ([1]; Day 3) [nM]	IC50 ([1]; Day 6, listed as mDTP3) [nM]	IC50 ([1]; Day 6) [nM]	IC50 ([1]; Day 3, listed as Z-DTP2) [nM]	restoration of MKK7 catalytic activity [2]	disruption of the Gadd45β/MKK7 interaction in co-immunoprecipitation [3]
CC(=O)N[C@H](Cc1ccc(O)cc1)C(=O)N[C@H](CCCNC(=N)N)C(=O)N[C@H](Cc1ccccc1)C(N)=O [Compound 17, Ac-D-Tyr-D-Arg-D-Phe-NH2] (Ac-[dY]-[dR]-[dF]-NH2)	354	81	25	16	–	–	–
N=C(N)NCCC[C@@H](NC(=O)[C@@H](CCC(=O)O)NC(=O)[C@@H](Cc1ccc(O)cc1)NC(=O)OCc1ccccc1)C(=O)N[C@H](Cc1ccccc1)C(N)=O [Compound 9, Z-D-Tyr-D-Glu-D-Arg-D-Phe-NH2] (Cbz-[dY][dE][dR][dF]-NH2)	1300	141	–	66	144	–	–
CC(=O)N[C@H](Cc1ccc(O)cc1)C(=O)N[C@H](CC(=O)O)C(=O)N[C@H](Cc1c[nH]cn1)C(=O)N[C@H](Cc1ccccc1)C(N)=O [DTP1, Acetyl-(D-Tyr)-(D-Asp)-(D-His)-(D-Phe)-NH2] (Ac-[dY][dD][dH][dF]-NH2)	–	–	–	–	–	fully restored the catalytic activity of MKK7	no or very little Gadd45β
CC(=O)N[C@H](Cc1ccc(O)cc1)C(=O)N[C@H](CCC(=O)O)C(=O)N[C@H](CCCNC(=N)N)C(=O)N[C@H](Cc1ccccc1)C(N)=O [DTP2, Acetyl-(D-Tyr)-(D-Glu)-(D-Arg)-(D-Phe)-NH2] (Ac-[dY][dE][dR][dF]-NH2)	–	–	–	–	–	fully restored the catalytic activity of MKK7	no or very little Gadd45β
